Read-outs that look alike come from different tables or passages of the source.
What was measured:
Cem/hEnt-0 = assay: Cytostatic assay, CEM cells lacking the hEnt1 transporter; type: cell-based; conditions: Homo sapiens, CCRF-CEM, read-out: IC50 Cem/hEnt-0
Source text: Data are mean (±SD) of at least two to four independent experiments. Table 8 identifies the phosphoramidate motif of compounds embodying the present invention, as discussed above with respect to Table 6, but with “Naph” standing for 1-naphthyl.

L1210.Hyor = assay: Cytostatic assay, Mycoplasma hyorhinis-infected L1210 cells; conditions: for % Retention: CC50 L1210 × 100 ÷ CC50 L1210/Hyor; for CC50 / IC50: Mus musculus; for CC50: L1210, read-out: CC50 L1210/Hyor
In short: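 Proliferation read by Coulter counting after 48 h exposure of compound-treated L1210 cells carrying M. hyorhinis infection (60,000 cells/well, DMEM with 10% FBS, 37 °C). Values also given as percent activity retained in infected cells.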

carboxypeptidase Y = biological target: T1, carboxypeptidase Y (Saccharomyces cerevisiae, UniProt P00729); assay: Carboxypeptidase Y assay by in situ 31P NMR; type: in vitro ADME; conditions: yeast (Saccharomyces cerevisiae), 5 mg/mL, pH 7.6
T1 construct: purchased Sigma-Aldrich
T1 sequence (P00729 112-532): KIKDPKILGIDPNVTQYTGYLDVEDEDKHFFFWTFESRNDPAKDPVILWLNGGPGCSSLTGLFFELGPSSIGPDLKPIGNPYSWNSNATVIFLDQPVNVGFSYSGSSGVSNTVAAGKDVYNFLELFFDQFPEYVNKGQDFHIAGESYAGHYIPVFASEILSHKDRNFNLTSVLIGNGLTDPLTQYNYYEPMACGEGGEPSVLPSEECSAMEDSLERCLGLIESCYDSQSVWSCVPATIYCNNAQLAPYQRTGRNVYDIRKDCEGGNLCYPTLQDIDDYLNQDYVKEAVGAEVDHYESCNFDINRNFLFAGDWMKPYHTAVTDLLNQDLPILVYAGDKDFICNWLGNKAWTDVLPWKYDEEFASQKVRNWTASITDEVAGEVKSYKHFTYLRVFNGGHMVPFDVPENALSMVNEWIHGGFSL
Description: The enzymatic stability of the prodrug CPF-373 towards carboxypeptidase Y was studied using in situ ^31P NMR (202 MHz). The experiment was carried out by dissolving CPF-373 (3.0 mg) in d6-acetone (150 μL) and adding TRIZMA buffer pH 7.6 (300 μL). The resulting solution was placed in an NMR tube and a ^31P-NMR experiment at 25° C. was recorded as the blank experiment. The enzyme Carboxypeptidase Y (0.2 mg) was solubilised in TRIZMA (150 μL) and added to the solution of the phosphoramidate derivative in the NMR tube. Next, the tube was placed in the NMR machine, which was set to run a ^31P-NMR experiment (64 scans) every 4 minutes for 14 hours at 25° C. Data were processed and analysed with the Bruker Topspin 2.1 program. Carboxypeptidase Y and TRIZMA buffer were purchased from Sigma-Aldrich.
The compound (1) was incubated with carboxypeptidase Y (also known as cathepsin A) in TRIZMA buffer and the conversion of (1) was monitored by ^31P NMR. For a better resolution original spectra (lower graphs) and deconvoluted ones (upper graphs) are shown.
A enzymatic study using a carboxypeptidase Y assay was performed in which compound CPF 581, carboxypeptidase Y, and Trizma buffer (pH 7.6) were dissolved in acetone-d6 and ^31P NMR spectrum (202 MHz) spectra were recorded at regular intervals (every 7 min) over 14 h. […]

[1] = Stability in buffer at pH 8 by 31P NMR; type: physicochemical; conditions: 14 hours
Description: The stability of the prodrug CPF-373 towards hydrolysis at pH=8 was studied using in situ ^31P NMR (202 MHz). The ProTide CPF-373 (1) (4.9 mg) was dissolved in MeOD (0.1 mL) after which 0.5 mL buffer (pH=8) (prepared from a solution of 0.1 M Na2HPO4, which was adjusted by 0.1 M HCl) was added. Then the sample was transferred into an NMR tube, and a ^31P NMR experiment was performed at 37° C. recording the data every 12 minutes for 14 hours. Data were processed and analysed with the Bruker Topspin 2.1 program.
(§1) A chemical hydrolysis was evaluated under experimental conditions at pH 1 and pH 8 and monitored by ^31P NMR. During the assay (14 h) under acidic conditions (pH 1) only two peaks representing the two diastereoisomers were recorded.

[2] = Stability in buffer at pH 1 by 31P NMR; type: physicochemical; conditions: 14 hours
Description: The stability of the prodrug CPF-373 towards hydrolysis at pH=1 was studied using in situ ^31P NMR (202 MHz). The ProTide CPF-373 (1) (2.6 mg) was dissolved in MeOD (0.1 mL) after which 0.5 mL buffer (pH=1) (prepared from equal parts of 0.2 M HCl and 0.2 M KCl) was added. Then the sample was transferred into an NMR tube, and a ^31P NMR experiment was performed at 37° C. recording the data every 12 minutes for 14 hours. Data were processed and analysed with the Bruker Topspin 2.1 program.
as §1

HeLa/TK^− = assay: Cytostatic assay, HeLa/TK^− cells; type: cell-based; conditions: Homo sapiens, HeLa
Source text: The cell lines employed were L1210/0 (a leukemia cell line), FM3A/0 (a breast cancer cell line), Cem/0 (an acute lymphoblastic leukemia cell line) and HeLa (a cervical cell line).

With `O=c1[nH]c(=O)n([C@H]2C[C@H](O)[C@@H](CO)O2)cc1F` [5-FdUrd, 5-fluoro-2′-deoxyuridine, reference compound] the IC50 (Cem/hEnt-0) was 2500 ± 650 nM, the “% Retention” value (L1210.Hyor) was 0.2% and the CC50 (L1210.Hyor) was 278 nM. The IC50 (L1210.Hyor; L1210, read-out: IC50 L1210.Hyor, Table 3) was 240 nM and the “loss of cytostatic activity against L1210.Hyor cells” value (L1210.Hyor; versus L1210/0) was 300 fold.

For `C[C@H](NP(=O)(OC[C@H]1O[C@@H](n2cc(F)c(=O)[nH]c2=O)CC1O)Oc1cccc2ccccc12)C(=O)OCc1ccccc1` (stereo partly drawn) [CPF 373, 5-Fluoro-2′deoxyuridine-5′-O-[1-naphthyl (benzoxy-L-alaninyl)] phosphate], the “time to complete conversion of parent to the putative intermediate” value (carboxypeptidase Y) was ≤ 26 min, the “Stability towards hydrolysis at pH 8” value [1] was “full stability” and the “Stability towards hydrolysis at pH 1” value [2] was “full stability”. For the same molecule, the IC50 (Cem/hEnt-0) was 600 ± 110 nM, the CC50 (HeLa/TK^−; Table 1, read-out: CC50 HeLa/TK^−) was 2500 ± 1300 nM and the IC50 (HeLa/TK^−; Table 6, read-out: IC50 HeLa/TK^−) was 2500 ± 1300 nM. The “% Retention” value (L1210.Hyor) was 44%, the CC50 (L1210.Hyor) was 25 nM and the IC50 (L1210.Hyor; L1210, read-out: IC50 L1210.Hyor) was 25 nM. For the same molecule, the “IC50(L1210.Hyor)/IC50(L1210/0)” value (L1210.Hyor; Table 7) was 2.27.
